What was measured:
[1] = Apparent permeability of the compound; format: ADME; conditions: not told
Protein O-GlcNAcase = target: T1, Protein O-GlcNAcase (Homo sapiens, UniProt O60502); experiment: Inhibition of human O-GlcNAcase
T1 sequence (O60502 whole entry): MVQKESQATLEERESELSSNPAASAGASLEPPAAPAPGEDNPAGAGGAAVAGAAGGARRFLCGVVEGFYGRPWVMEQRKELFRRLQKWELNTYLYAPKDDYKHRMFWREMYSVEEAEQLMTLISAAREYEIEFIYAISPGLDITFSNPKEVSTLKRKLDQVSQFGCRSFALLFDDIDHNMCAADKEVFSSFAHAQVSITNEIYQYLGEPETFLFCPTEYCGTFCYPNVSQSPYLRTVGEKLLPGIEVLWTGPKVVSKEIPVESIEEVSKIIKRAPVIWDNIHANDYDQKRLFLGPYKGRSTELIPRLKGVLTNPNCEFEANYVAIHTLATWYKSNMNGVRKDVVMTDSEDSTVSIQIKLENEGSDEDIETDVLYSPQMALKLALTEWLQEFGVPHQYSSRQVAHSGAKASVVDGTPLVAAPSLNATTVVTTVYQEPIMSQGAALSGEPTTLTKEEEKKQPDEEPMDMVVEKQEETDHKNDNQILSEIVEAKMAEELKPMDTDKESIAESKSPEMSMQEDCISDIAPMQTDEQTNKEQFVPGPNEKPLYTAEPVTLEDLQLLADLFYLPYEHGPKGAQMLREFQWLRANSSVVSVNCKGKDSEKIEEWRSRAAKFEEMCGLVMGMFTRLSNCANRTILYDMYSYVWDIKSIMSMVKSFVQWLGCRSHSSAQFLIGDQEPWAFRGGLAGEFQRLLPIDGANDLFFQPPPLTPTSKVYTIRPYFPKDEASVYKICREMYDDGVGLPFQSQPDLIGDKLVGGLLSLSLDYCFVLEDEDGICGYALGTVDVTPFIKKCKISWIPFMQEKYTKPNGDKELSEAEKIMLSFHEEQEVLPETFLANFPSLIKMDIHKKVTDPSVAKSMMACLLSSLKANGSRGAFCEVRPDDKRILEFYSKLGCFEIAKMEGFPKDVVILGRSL

Papp [1]: 6.4 ×10⁻⁶ cm/s
IC50 (Protein O-GlcNAcase): 7.9 nM
SMILES: CCNC1=N[C@@H]2[C@@H](O)[C@H](O)[C@@H](C(F)F)O[C@@H]2S1

Source: ChEMBL document CHEMBL4321833, “Sugar Kick Prevents Memory Impairment” (J Med Chem, 2019)
